These results are taken from article PMC5664067, “Investigating the Interaction of Cyclic RGD Peptidomimetics with αVβ6 Integrin by Biochemical and Molecular Docking Studies” (Cancers, 2017).

Read-outs that look alike come from different tables or passages of the source.

For one assay, the system named is integrin αVβ6. Further details: method as in PMID 28074920. As to conditions: immobilized LAP and soluble integrin; cited from earlier work.
Assay [1] deals with T1, Recombinant human integrin αVβ6 receptor (Homo sapiens, UniProt P06756+P18564).
T1 construct: purchased R&D Systems
T1 sequence (P06756 31-889 limits assumed): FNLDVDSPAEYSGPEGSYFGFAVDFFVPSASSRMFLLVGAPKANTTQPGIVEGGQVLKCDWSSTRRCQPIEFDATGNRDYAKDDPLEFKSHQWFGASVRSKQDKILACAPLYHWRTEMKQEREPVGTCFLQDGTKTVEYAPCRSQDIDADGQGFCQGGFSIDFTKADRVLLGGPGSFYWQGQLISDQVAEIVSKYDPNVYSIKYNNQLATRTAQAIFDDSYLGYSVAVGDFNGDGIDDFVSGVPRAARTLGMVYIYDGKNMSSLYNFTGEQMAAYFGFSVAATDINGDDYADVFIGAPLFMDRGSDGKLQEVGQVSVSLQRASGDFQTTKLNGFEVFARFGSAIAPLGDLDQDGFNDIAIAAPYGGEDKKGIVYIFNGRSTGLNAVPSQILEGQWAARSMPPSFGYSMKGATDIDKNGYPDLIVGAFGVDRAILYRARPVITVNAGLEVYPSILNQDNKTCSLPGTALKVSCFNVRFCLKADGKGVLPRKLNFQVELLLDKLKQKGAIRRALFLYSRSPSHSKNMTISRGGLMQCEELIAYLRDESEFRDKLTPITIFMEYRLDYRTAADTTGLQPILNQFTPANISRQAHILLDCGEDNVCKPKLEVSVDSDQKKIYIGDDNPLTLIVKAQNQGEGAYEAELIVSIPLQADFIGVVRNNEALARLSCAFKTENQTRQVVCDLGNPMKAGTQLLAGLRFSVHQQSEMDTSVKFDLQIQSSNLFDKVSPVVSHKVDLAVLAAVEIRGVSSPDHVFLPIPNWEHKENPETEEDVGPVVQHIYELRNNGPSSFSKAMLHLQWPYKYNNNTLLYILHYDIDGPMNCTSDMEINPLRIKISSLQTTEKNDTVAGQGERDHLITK
T1 sequence (P06756 891-992 partner limits assumed): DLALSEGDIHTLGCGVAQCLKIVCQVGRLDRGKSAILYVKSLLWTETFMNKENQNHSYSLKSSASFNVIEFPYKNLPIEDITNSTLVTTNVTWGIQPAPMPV
T1 sequence (P18564 22-707 limits assumed): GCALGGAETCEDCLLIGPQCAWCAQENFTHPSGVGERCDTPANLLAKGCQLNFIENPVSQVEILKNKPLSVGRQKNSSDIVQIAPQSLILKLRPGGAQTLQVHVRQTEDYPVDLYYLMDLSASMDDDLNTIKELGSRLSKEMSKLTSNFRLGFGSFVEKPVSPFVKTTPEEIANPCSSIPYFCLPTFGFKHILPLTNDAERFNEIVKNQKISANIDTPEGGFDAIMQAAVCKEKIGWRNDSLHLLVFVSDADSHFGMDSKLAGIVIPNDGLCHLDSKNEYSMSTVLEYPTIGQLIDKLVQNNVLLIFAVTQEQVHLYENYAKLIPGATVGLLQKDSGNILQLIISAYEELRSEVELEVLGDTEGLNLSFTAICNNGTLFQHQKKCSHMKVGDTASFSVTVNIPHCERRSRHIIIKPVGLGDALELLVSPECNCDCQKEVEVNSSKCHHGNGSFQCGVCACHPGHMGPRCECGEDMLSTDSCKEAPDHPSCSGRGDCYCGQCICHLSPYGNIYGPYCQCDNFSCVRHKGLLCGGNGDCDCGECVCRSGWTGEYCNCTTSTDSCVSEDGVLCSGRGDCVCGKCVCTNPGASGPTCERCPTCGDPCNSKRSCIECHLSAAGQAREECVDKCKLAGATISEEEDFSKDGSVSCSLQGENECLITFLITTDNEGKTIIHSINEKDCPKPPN
The assay is described as follows: Competitive solid-phase binding assay: inhibition of biotinylated fibronectin binding to isolated αVβ6 integrin. As to conditions: for IC50 (αVβ6)/IC50 (αVβ3): selectivity ratio; for αVβ6 IC50: 50% inhibition of biotinylated fibronectin (1 μg/mL) binding to isolated αVβ6, mean ± SD of triplicate determinations. The protocol:
The assay was performed according to previously reported procedures with slight modifications.
Recombinant human integrin αVβ6 receptor (R&D Systems, Minneapolis, MN, USA) was diluted to 1.0 μg/mL in coating buffer containing 20 mM Tris-HCl (pH 7.4), 150 mM NaCl, 1 mM MnCl2, 2 mM CaCl2, and 1 mM MgCl2. An aliquot of diluted receptor (100 μL/well) was added to 96-well microtiter plates (Nunc MaxiSorp, Thermo Fisher Scientific, Roskilde, Denmark) and incubated overnight at 4 °C. The plates were incubated with blocking solution (coating buffer plus 1% bovine serum albumin) for additional 2 h at room temperature to block nonspecific binding. After washing twice with blocking solution, plates were incubated shaking in the dark for 3 h at room temperature, with various concentrations (10^−4–10^−11 M) of test compounds in the presence of 1 μg/mL biotinylated fibronectin (Molecular Innovations, Novi, MI, USA). Biotinylation was performed using an EZ-Link Sulfo-NHS-Biotinylation kit (Pierce, Rockford, IL, USA). After washing three times, the plates were incubated shaking for 1 h, at room temperature, with streptavidin-biotinylated peroxidase complex (Amersham Biosciences, Uppsala, Sweden). After washing 3 times with blocking solution, plates were incubated with 100 μL/well of Substrate Reagent Solution (R&D Systems) for 30 min shaking in the dark, before stopping the reaction with the addition of 50 μL/well 2N H2SO4. Absorbance at 415 nm was read in a SynergyTM HT Multi-Detection Microplate Reader (BioTek Instruments, Inc., Winooski, VT, USA). Each data point represents the average of triplicate wells; data analysis was carried out by nonlinear regression analysis with GraphPad Prism software (GraphPad Software, Inc., La Jolla, CA, USA). Each experiment was repeated in triplicate.

The next assay has as its system human glioblastoma cells. Further details: method as in PMID 25761230. Conditions: cited from earlier work.
The subject of a further assay is different cancer cells. Further details: method as in PMID 25053992. Conditions: cited from earlier work.
The subject of assay [2] is FAK/Akt integrin-activated transduction signaling pathway. Further details: method as in PMID 25761230. As to conditions: human glioblastoma cells; cited from earlier work.
For another assay, the system named is human endothelial cells. Further details: method as in PMID 25053992. As to conditions: cited from earlier work.
Assay [3] has as its target T2, αVβ3 integrin (Homo sapiens, UniProt P05106+P06756). Further details: method as in PMID 22517378. As to conditions: 50% inhibition of biotinylated vitronectin binding to αVβ3; cited from earlier work.
The target of assay [4] is T2, αVβ3 integrin. Description: Inhibition of biotinylated vitronectin binding to isolated αVβ3 integrin. As to conditions: 50% inhibition of biotinylated vitronectin binding to isolated αVβ3; new RAD peptidomimetic tested for this paper.

T2 sequence (P06756 31-889 limits assumed): as the sequence (P06756 31-889 limits assumed) above
T2 sequence (P06756 891-1048 partner limits assumed): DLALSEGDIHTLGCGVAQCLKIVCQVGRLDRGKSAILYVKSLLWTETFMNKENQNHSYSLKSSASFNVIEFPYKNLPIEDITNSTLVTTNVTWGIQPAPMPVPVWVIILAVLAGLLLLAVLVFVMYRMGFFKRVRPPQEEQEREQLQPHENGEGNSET
T2 sequence (P05106 27-788): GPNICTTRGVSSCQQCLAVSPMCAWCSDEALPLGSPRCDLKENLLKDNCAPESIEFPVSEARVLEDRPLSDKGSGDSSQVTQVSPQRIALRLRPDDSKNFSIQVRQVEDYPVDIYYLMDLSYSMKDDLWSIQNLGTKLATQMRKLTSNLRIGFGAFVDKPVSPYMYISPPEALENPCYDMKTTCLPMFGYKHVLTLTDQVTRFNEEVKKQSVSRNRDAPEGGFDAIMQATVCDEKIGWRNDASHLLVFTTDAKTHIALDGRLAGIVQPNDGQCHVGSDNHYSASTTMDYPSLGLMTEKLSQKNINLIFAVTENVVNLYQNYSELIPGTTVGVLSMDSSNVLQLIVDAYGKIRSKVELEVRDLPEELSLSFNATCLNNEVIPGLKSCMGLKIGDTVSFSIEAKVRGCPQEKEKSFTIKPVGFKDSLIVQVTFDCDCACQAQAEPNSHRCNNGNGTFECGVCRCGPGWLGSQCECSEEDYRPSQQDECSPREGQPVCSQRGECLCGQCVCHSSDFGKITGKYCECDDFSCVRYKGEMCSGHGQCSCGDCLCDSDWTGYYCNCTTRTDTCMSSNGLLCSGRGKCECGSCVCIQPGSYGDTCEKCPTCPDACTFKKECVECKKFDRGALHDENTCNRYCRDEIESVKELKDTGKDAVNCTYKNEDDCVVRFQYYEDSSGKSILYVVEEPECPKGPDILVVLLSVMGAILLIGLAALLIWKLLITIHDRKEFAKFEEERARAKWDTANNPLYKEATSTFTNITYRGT

As to `CC(C)[C@H]1C(=O)N[C@@H](CCCNC(=N)N)C(=O)NCC(=O)N[C@@H](CC(=O)O)C(=O)N[C@H](Cc2ccccc2)C(=O)N1C` [Compound 1a, cyclo[RGDf(N-Me)V]], the “αVβ6 IC50” value in the assay with integrin αVβ6 is “micromolar”.

By IC50 is commonly meant the midpoint of a concentration-inhibition curve. Consider `N=C(N)NCCC[C@@H]1NC(=O)C[C@@H]2NC(=O)[C@@H](CNC(=O)[C@H](CC(=O)O)NC(=O)CNC1=O)N(Cc1ccccc1)C2=O` [Compound 2], for which, in assay [1], the concentration for half-maximal inhibition (IC50) was determined as 345 ± 1 nM and the “IC50 (αVβ6)/IC50 (αVβ3)” value came out at 108.

On to `N=C(N)NCCC[C@@H]1NC(=O)C[C@H]2NC(=O)[C@H](CNC(=O)[C@H](CC(=O)O)NC(=O)CNC1=O)N(Cc1ccccc1)C2=O` [Compound 3], for which, in the assay with human glioblastoma cells, the “effects on integrin-mediated cell infiltration processes” value is “inhibitory effects”. Also, the “inhibition of cell adhesion” value in the assay on different cancer cells was “significantly inhibit”. The “effects on the FAK/Akt integrin-activated transduction signaling pathway” value in assay [2] is “inhibitory effects”. For the same compound, in the assay with human endothelial cells, the “inhibition of angiogenesis induced by pro-angiogenic growth factors” value is “significantly inhibit”. Further, in assay [1], the concentration for half-maximal inhibition (IC50) was 95.6 ± 24.6 nM and the “IC50 (αVβ6)/IC50 (αVβ3)” value was determined as 21.

On to `N=C(N)NCCC[C@@H]1NC(=O)C[C@H]2C(=O)N[C@H](CNC(=O)[C@H](CC(=O)O)NC(=O)CNC1=O)C(=O)N2Cc1ccccc1` [Compound 4], for which the IC50 in assay [1] was found to be 95.3 ± 4.9 nM.

On to `N=C(N)NCCC[C@@H]1NC(=O)C[C@H]2C(=O)N(Cc3ccccc3)[C@H](CNC(=O)[C@H](CC(=O)O)NC(=O)CNC1=O)C(=O)N2Cc1ccccc1` [Compound 5], for which the results for the IC50 (at αVβ3 integrin [3]; in assay [1]) were 12.6 ± 5 nM and 173 ± 52.5 nM, respectively.

On to `N=C(N)NCCC[C@@H]1NC(=O)C[C@@H]2C(=O)N[C@@H](CNC(=O)[C@H](CC(=O)O)NC(=O)CNC1=O)C(=O)N2Cc1ccccc1` [Compound 6], for which, in assay [1], the 50% inhibitory concentration (IC50) was determined as 76.6 ± 4.2 nM and the “IC50 (αVβ6)/IC50 (αVβ3)” value came to 37.

As to `N=C(N)NCCC[C@@H]1NC(=O)C[C@@H]2C(=O)N(Cc3ccccc3)[C@@H](CNC(=O)[C@H](CC(=O)O)NC(=O)CNC1=O)C(=O)N2Cc1ccccc1` [Compound 7], the “αVβ3 IC50” value at αVβ3 integrin [3] is “subnanomolar”. In assay [1], the half-maximal inhibitory concentration (IC50) was 2.3 ± 0.8 nM and the “αVβ6 IC50” value was “low nanomolar”.

`CC1NC(=O)[C@H](CCCNC(=N)N)NC(=O)C[C@H]2NC(=O)[C@H](CNC(=O)[C@H](CC(=O)O)NC1=O)N(Cc1ccccc1)C2=O` (some centres unmarked) [Compound 8, Cyclo[DKP-3-RAD]]: the “αVβ3 IC50” value at αVβ3 integrin [4] was “micromolar”. In addition, in assay [1], the “αVβ6 IC50” value is “micromolar” and the “IC50 (αVβ6)/IC50 (αVβ3)” value worked out at 3.
